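Interpolation was linear, between the two tested concentrations surrounding the appropriate level; five concentrations were tested over 48 hours in 96-well plates. Abbreviation: GI50, concentration required for 50% inhibition of growth.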 The source made the active and inactive calls. Rule as the data show it: active = GI50 up to about 1.1 µM and inactive = higher.
Key:
Assay in all cases: growth of human tumour cells (NCI), 48 h
K562 = system: K562
SF-295 = system: SF-295
786-0 = system: 786-0
CAKI-1 = system: CAKI-1
A498 = system: A498
UACC-62 = system: UACC-62
M19-MEL = system: M19-MEL
SW-620 = system: SW-620
NCI-H23 = system: NCI-H23
DMS-273 = system: DMS-273
NCI/ADR-RES = system: NCI/ADR-RES
HCC 2998 = system: HCC 2998
OVCAR-3 = system: OVCAR-3
SNB-75 = system: SNB-75
DMS-114 = system: DMS-114
OVCAR-4 = system: OVCAR-4
EKVX = system: EKVX
LOX IMVI = system: LOX IMVI
CCRF-CEM = system: CCRF-CEM
RPMI-8226 = system: RPMI-8226
OVCAR-5 = system: OVCAR-5
SK-MEL-2 = system: SK-MEL-2
SNB-78 = system: SNB-78
M14 = system: M14
SF-539 = system: SF-539
HOP-62 = system: HOP-62
HT-29 = system: HT-29
RXF 393 = system: RXF 393
HOP-92 = system: HOP-92
Malme-3M = system: Malme-3M
NCI-H522 = system: NCI-H522
MDA-MB-231 = system: MDA-MB-231
XF498 = system: XF498
T47D = system: T47D
ACHN = system: ACHN
UACC-257 = system: UACC-257
NCI-H226 = system: NCI-H226
HOP-18 = system: HOP-18
SK-MEL-5 = system: SK-MEL-5
MOLT-4 = system: MOLT-4
IGROV-1 = system: IGROV-1
A549 = system: A549
MCF7 = system: MCF7
SNB-19 = system: SNB-19
SF-268 = system: SF-268
SK-MEL-28 = system: SK-MEL-28
COLO 205 = system: COLO 205
UO-31 = system: UO-31
DLD-1 = system: DLD-1
DU-145 = system: DU-145
MDA-MB-435 = system: MDA-MB-435
BT-549 = system: BT-549
MDA-N = system: MDA-N
U-251 = system: U-251
NCI-H460 = system: NCI-H460
HL-60 = system: HL-60
HCT-116 = system: HCT-116
Hs-578T = system: Hs-578T
SN12C = system: SN12C
PC-3 = system: PC-3
KM-20L2 = system: KM-20L2
SR = system: SR
KM12 = system: KM12
OVCAR-8 = system: OVCAR-8
HCT-15 = system: HCT-15
LXFL 529 = system: LXFL 529
SK-OV-3 = system: SK-OV-3
TK-10 = system: TK-10
RXF 631 = system: RXF 631

CN(C)c1nc(N(C)C)nc(N(C)C)n1 [ALTRETAMINE]
GI50 (K562): > 148 µM (inactive) | GI50 (SF-295): > 150 µM (inactive) | GI50 (786-0): > 150 µM (inactive) | GI50 (CAKI-1): 130 µM (inactive) | GI50 (A498): > 148 µM (inactive) | GI50 (UACC-62): > 150 µM (inactive) | GI50 (M19-MEL): > 144 µM (inactive) | GI50 (SW-620): > 150 µM (inactive) | GI50 (NCI-H23): > 143 µM (inactive) | GI50 (DMS-273): > 140 µM (inactive) | GI50 (NCI/ADR-RES): > 114 µM (inactive) | GI50 (HCC 2998): > 123 µM (inactive) | GI50 (OVCAR-3): 142 µM (inactive) | GI50 (SNB-75): 130 µM (inactive) | GI50 (DMS-114): > 148 µM (inactive) | GI50 (OVCAR-4): > 143 µM (inactive) | GI50 (EKVX): > 150 µM (inactive) | GI50 (LOX IMVI): > 145 µM (inactive) | GI50 (CCRF-CEM): > 147 µM (inactive) | GI50 (RPMI-8226): > 143 µM (inactive) | GI50 (OVCAR-5): > 147 µM (inactive) | GI50 (SK-MEL-2): > 150 µM (inactive) | GI50 (SNB-78): > 150 µM (inactive) | GI50 (M14): > 150 µM (inactive) | GI50 (SF-539): > 143 µM (inactive) | GI50 (HOP-62): 139 µM (inactive) | GI50 (HT-29): > 150 µM (inactive) | GI50 (RXF 393): > 150 µM (inactive) | GI50 (HOP-92): 147 µM (inactive) | GI50 (Malme-3M): > 147 µM (inactive) | GI50 (NCI-H522): 141 µM (inactive) | GI50 (MDA-MB-231): > 150 µM (inactive) | GI50 (XF498): 109 µM (inactive) | GI50 (T47D): > 150 µM (inactive) | GI50 (ACHN): > 150 µM (inactive) | GI50 (UACC-257): > 150 µM (inactive) | GI50 (NCI-H226): > 150 µM (inactive) | GI50 (HOP-18): 53.3 µM (inactive) | GI50 (SK-MEL-5): 136 µM (inactive) | GI50 (MOLT-4): 133 µM (inactive) | GI50 (IGROV-1): > 123 µM (inactive) | GI50 (A549): > 147 µM (inactive) | GI50 (MCF7): > 150 µM (inactive) | GI50 (SNB-19): > 144 µM (inactive) | GI50 (SF-268): > 150 µM (inactive) | GI50 (SK-MEL-28): > 150 µM (inactive) | GI50 (COLO 205): > 148 µM (inactive) | GI50 (UO-31): > 147 µM (inactive) | GI50 (DLD-1): > 132 µM (inactive) | GI50 (DU-145): > 150 µM (inactive) | GI50 (MDA-MB-435): > 150 µM (inactive) | GI50 (BT-549): > 150 µM (inactive) | GI50 (MDA-N): > 150 µM (inactive) | GI50 (U-251): > 150 µM (inactive) | GI50 (NCI-H460): > 124 µM (inactive) | GI50 (HL-60): > 142 µM (inactive) | GI50 (HCT-116): > 150 µM (inactive) | GI50 (Hs-578T): > 150 µM (inactive) | GI50 (SN12C): > 150 µM (inactive) | GI50 (PC-3): > 150 µM (inactive) | GI50 (KM-20L2): > 150 µM (inactive) | GI50 (SR): > 150 µM (inactive) | GI50 (KM12): > 150 µM (inactive) | GI50 (OVCAR-8): > 150 µM (inactive) | GI50 (HCT-15): > 122 µM | GI50 (LXFL 529): > 150 µM (inactive) | GI50 (SK-OV-3): > 150 µM (inactive) | GI50 (TK-10): > 150 µM (inactive)

CCc1ccc(NC(=O)NC(=O)c2ccccc2[N+](=O)[O-])cc1Oc1ncc(Cl)cn1
GI50 (K562): < 0.0145 µM (active) | GI50 (SF-295): < 0.0222 µM (active) | GI50 (786-0): 0.0158 µM (active) | GI50 (CAKI-1): < 0.01 µM (active) | GI50 (A498): < 0.01 µM (active) | GI50 (UACC-62): < 0.0177 µM (active) | GI50 (M19-MEL): < 0.0275 µM (active) | GI50 (SW-620): 0.0168 µM (active) | GI50 (NCI-H23): < 0.0174 µM (active) | GI50 (DMS-273): < 0.0149 µM (active) | GI50 (HCC 2998): 0.027 µM (active) | GI50 (OVCAR-3): 0.0147 µM (active) | GI50 (SNB-75): < 0.01 µM (active) | GI50 (DMS-114): 0.0174 µM (active) | GI50 (OVCAR-4): 2.61 µM (inactive) | GI50 (EKVX): 7.06 µM (inactive) | GI50 (LOX IMVI): 0.0189 µM (active) | GI50 (CCRF-CEM): 0.0213 µM (active) | GI50 (RPMI-8226): < 0.0159 µM (active) | GI50 (OVCAR-5): < 0.0301 µM (active) | GI50 (SK-MEL-2): < 0.01 µM (active) | GI50 (SNB-78): 0.0279 µM (active) | GI50 (M14): 0.0231 µM (active) | GI50 (SF-539): 0.0137 µM (active) | GI50 (HOP-62): < 0.0154 µM (active) | GI50 (HT-29): 0.0179 µM (active) | GI50 (RXF 393): < 0.01 µM (active) | GI50 (HOP-92): < 0.01 µM (active) | GI50 (Malme-3M): < 0.01 µM (active) | GI50 (NCI-H522): 0.0135 µM (active) | GI50 (MDA-MB-231): 0.0376 µM (active) | GI50 (XF498): < 0.01 µM (active) | GI50 (ACHN): 0.0386 µM (active) | GI50 (UACC-257): < 0.01 µM (active) | GI50 (NCI-H226): 0.0151 µM (active) | GI50 (HOP-18): > 100 µM (inactive) | GI50 (SK-MEL-5): < 0.0139 µM (active) | GI50 (MOLT-4): 0.0247 µM (active) | GI50 (IGROV-1): < 0.0165 µM (active) | GI50 (A549): 0.0213 µM (active) | GI50 (MCF7): < 0.01 µM (active) | GI50 (SNB-19): 0.0495 µM (active) | GI50 (SF-268): 0.0287 µM (active) | GI50 (SK-MEL-28): 0.37 µM (active) | GI50 (COLO 205): 0.0304 µM (active) | GI50 (UO-31): < 0.01 µM (active) | GI50 (DLD-1): < 0.0192 µM (active) | GI50 (DU-145): 0.0578 µM (active) | GI50 (MDA-MB-435): < 0.01 µM (active) | GI50 (BT-549): 0.0815 µM (active) | GI50 (MDA-N): < 0.01 µM (active) | GI50 (U-251): 0.0181 µM (active) | GI50 (NCI-H460): 0.0158 µM (active) | GI50 (HL-60): < 0.013 µM (active) | GI50 (HCT-116): 0.0331 µM (active) | GI50 (Hs-578T): < 0.01 µM (active) | GI50 (SN12C): 0.0308 µM (active) | GI50 (PC-3): < 0.01 µM (active) | GI50 (KM-20L2): 0.0148 µM (active) | GI50 (SR): 0.0247 µM (active) | GI50 (KM12): < 0.0161 µM (active) | GI50 (OVCAR-8): 0.0264 µM (active) | GI50 (HCT-15): 0.0141 µM | GI50 (LXFL 529): < 0.0185 µM (active) | GI50 (SK-OV-3): < 0.0164 µM (active) | GI50 (TK-10): 1.96 µM (inactive)

Clc1ccc2c(c1)[nH]c1c2nc2ccccn21
GI50 (786-0): 18.9 µM (inactive) | GI50 (A498): 24.2 µM (inactive) | GI50 (SW-620): 24.8 µM (inactive) | GI50 (NCI-H23): 21.6 µM (inactive) | GI50 (RPMI-8226): 14.7 µM (inactive) | GI50 (SNB-78): 23.6 µM (inactive) | GI50 (M14): 20.2 µM (inactive) | GI50 (SF-539): 15.9 µM (inactive) | GI50 (HT-29): 15.2 µM (inactive) | GI50 (NCI-H522): 19.8 µM (inactive) | GI50 (UACC-257): 16.7 µM (inactive) | GI50 (NCI-H226): 25.4 µM (inactive) | GI50 (IGROV-1): 40.8 µM (inactive) | GI50 (A549): 25.1 µM (inactive) | GI50 (SNB-19): 19.4 µM (inactive) | GI50 (SF-268): 19 µM (inactive) | GI50 (SK-MEL-28): 17.4 µM (inactive) | GI50 (UO-31): 18.4 µM (inactive) | GI50 (RXF 631): 22.5 µM (inactive) | GI50 (HCT-116): 19.3 µM (inactive) | GI50 (KM-20L2): 14.7 µM (inactive) | GI50 (SR): 17.1 µM (inactive) | GI50 (KM12): 16.9 µM (inactive) | GI50 (SK-OV-3): 27.3 µM (inactive) | GI50 (TK-10): 16.8 µM (inactive)
